The structures appear in SMILES notation.

The subject of data set [1] is AVFA. Kind of data set: Herbicidal activity on grasses, post-emergence. The format is in vivo, Avena fatua. Conditions: no safener, 4-leaf stage. How it is done:
(§1) Various crop plants are grown in plastic pots with a diameter of 9 cm in a glasshouse to the stated stage and then treated with the particular herbicide or with a mixture of the herbicide and the safener by the post-emergence method. This entails the herbicide of the formula (A) and the compounds of the formula (B) being applied in the form of aqueous suspensions or emulsions with a water application rate which converts to 300 l/ha. 4 weeks after the treatment, the plants are assessed visually for every type of damage by the applied herbicides, taking particular account of the extent of persistent growth inhibition. The evaluation takes place in percentages (scale from 0 to 100%) compared with untreated controls.

In data set [2] the test system is POAN. Kind of data set: Herbicidal activity on grasses, post-emergence. It counts as in vivo, Poa annua. The note with it: no safener, 4-leaf stage. The protocol:
as §1

Data set [3] deals with Wheat. Kind of data set: Phytotoxicity of herbicide/safener combinations in cereals, glasshouse post-emergence. Conditions: no safener, 4 weeks after treatment. The format is in vivo. How it is done: as §1
The subject of data set [4] is Barley. Described as above. The format is in vivo. The note with it: no safener, 4 weeks after treatment. How it is done:
as §1

Data set [5] has as its system ALMY. As to the kind of experiment: Herbicidal activity on grasses, post-emergence. The format is in vivo, Alopecurus myosuroides. The note with it: no safener, 4-leaf stage. How it is done: as §1
Data set [6] has as its system APSP. As to the kind of experiment: Herbicidal activity on grasses, post-emergence. It counts as in vivo, Apera spica-venti. The note with it: no safener, 4-leaf stage. How it is done:
as §1

On to `COC(=O)NCc1ccc(C(=O)OC)c(S(=O)(=O)NC(=O)Nc2nc(OC)cc(OC)n2)c1.[Na]` [A11], for which the “% effect on AVFA” value is 70% in data set [1] (dose A 6 g AS/ha), 90% in data set [1] (dose A 12 g AS/ha) and 95% in data set [1] (dose A 25 g AS/ha). For the same molecule, the “% effect on POAN” value was determined as 90% in data set [2] (dose A 6 g AS/ha), 100% in data set [2] (dose A 12 g AS/ha) and 100% in data set [2] (dose A 25 g AS/ha). Moreover, the “Phytotoxicity Wheat” value came out at 5% in data set [3] (dose A 6 g AS/ha), 20% in data set [3] (dose A 12 g AS/ha) and 45% in data set [3] (dose A 25 g AS/ha). Moreover, the “Phytotoxicity Barley” value in data set [4] (dose A 6 g AS/ha) is 10%; in data set [4] (dose A 12 g AS/ha), 25%; in data set [4] (dose A 25 g AS/ha), 45%. For the same molecule, the “% effect on ALMY” value in data set [5] (dose A 6 g AS/ha) is reported as 95%; in data set [5] (dose A 12 g AS/ha), 98%; in data set [5] (dose A 25 g AS/ha) it was 100%. Besides, the results for the “% effect on APSP” value in data set [6] (dose A 6 g AS/ha), in data set [6] (dose A 12 g AS/ha) and in data set [6] (dose A 25 g AS/ha) were 85%, 95% and 100%, respectively.

With `COC(=O)c1ccc(CN(C)S(C)(=O)=O)cc1S(=O)(=O)NC(=O)Nc1nc(OC)cc(OC)n1` [A12], the figures for the “% effect on AVFA” value in data set [1] (dose A 6 g AS/ha), in data set [1] (dose A 12 g AS/ha) and in data set [1] (dose A 25 g AS/ha) were 75%, 85% and 90%, respectively. Moreover, the “% effect on POAN” value was determined as 85% in data set [2] (dose A 6 g AS/ha), 92% in data set [2] (dose A 12 g AS/ha) and 99% in data set [2] (dose A 25 g AS/ha). Also, the “Phytotoxicity Wheat” value in data set [3] (dose A 6 g AS/ha) turned out to be 5%; in data set [3] (dose A 12 g AS/ha), 10%; in data set [3] (dose A 25 g AS/ha), 10%. The “Phytotoxicity Barley” value in data set [4] (dose A 6 g AS/ha) was 8%; in data set [4] (dose A 12 g AS/ha), 15%; in data set [4] (dose A 25 g AS/ha), 25%. Moreover, the “% effect on ALMY” value worked out at 95% in data set [5] (dose A 6 g AS/ha), 98% in data set [5] (dose A 12 g AS/ha) and 99% in data set [5] (dose A 25 g AS/ha). In addition, the figures for the “% effect on APSP” value in data set [6] (dose A 6 g AS/ha), in data set [6] (dose A 12 g AS/ha) and in data set [6] (dose A 25 g AS/ha) were 85%, 95% and 98%, respectively.

As for `COC(=O)c1ccc(N(C)C(=O)C(C)C)cc1S(=O)(=O)NC(=O)Nc1nc(OC)cc(OC)n1.[Na]` [A5, N-(4,6-Dimethoxypyrimidin-2-ylaminocarbonyl)-2-methoxycarbonyl-5-(N-isopropionylmethylamino)benzenesulfonamide sodium salt], the “% effect on AVFA” value in data set [1] (dose A 10 g AS/ha) is listed as 85%; in data set [1] (dose A 20 g AS/ha), 99%; in data set [1] (dose A 40 g AS/ha), 100%. For the same molecule, the “% effect on POAN” value in data set [2] (dose A 10 g AS/ha) is listed as 98%; in data set [2] (dose A 20 g AS/ha), 100%; in data set [2] (dose A 40 g AS/ha) it was 100%. In addition, the “Phytotoxicity Wheat” value was determined as 5% in data set [3] (dose A 20 g AS/ha) and 20% in data set [3] (dose A 40 g AS/ha). Also, the “Phytotoxicity Barley” value in data set [4] (dose A 20 g AS/ha) was found to be 25%; in data set [4] (dose A 40 g AS/ha), 50%. The “% effect on ALMY” value in data set [5] (dose A 10 g AS/ha) was 95%; in data set [5] (dose A 20 g AS/ha) it was 99%; in data set [5] (dose A 40 g AS/ha), 100%. Moreover, the entries for the “% effect on APSP” value in data set [6] (dose A 10 g AS/ha), in data set [6] (dose A 20 g AS/ha) and in data set [6] (dose A 40 g AS/ha) were 98%, 100% and 100%, respectively.

With `COC(=O)c1ccc(CN(C)C=O)cc1S(=O)(=O)NC(=O)Nc1nc(OC)cc(OC)n1.[Na]` [A2, N-(4,6-Dimethoxypyrimidin-2-ylaminocarbonyl)-2-methoxycarbonyl-5-(N-formyl-N-methylaminomethyl)benzenesulfonamide sodium salt], the figures for the “Phytotoxicity Wheat” value in data set [3] (dose A 10 g AS/ha) and in data set [3] (dose A 20 g AS/ha) were 20% and 60%, respectively. For the same molecule, the “Phytotoxicity Barley” value is given as 40% in data set [4] (dose A 10 g AS/ha) and 80% in data set [4] (dose A 20 g AS/ha).

As for `CCC(=O)N(C)c1ccc(C(=O)OC)c(S(=O)(=O)NC(=O)Nc2nc(OC)cc(OC)n2)c1.[Na]` [A4, N-(4,6-Dimethoxypyrimidin-2-ylaminocarbonyl)-2-methoxycarbonyl-5-(N-methyl-N-propionylamino)benzenesulfonamide sodium salt], the “Phytotoxicity Wheat” value in data set [3] (dose A 20 g AS/ha) is given as 15%; in data set [3] (dose A 40 g AS/ha) it was 40%. Besides, the results for the “Phytotoxicity Barley” value in data set [4] (dose A 20 g AS/ha) and in data set [4] (dose A 40 g AS/ha) were 30% and 80%, respectively.

Take `COC(=O)c1ccc(CNS(C)(=O)=O)cc1S(=O)(=O)NC(=O)Nc1nc(OC)cc(OC)n1.[Na]` [A10]: the results for the “% effect on AVFA” value in data set [1] (dose A 6 g AS/ha), in data set [1] (dose A 12 g AS/ha) and in data set [1] (dose A 25 g AS/ha) were 75%, 85% and 90%, respectively. Besides, the “% effect on POAN” value came to 85% in data set [2] (dose A 6 g AS/ha), 99% in data set [2] (dose A 12 g AS/ha) and 100% in data set [2] (dose A 25 g AS/ha). Also, the “Phytotoxicity Wheat” value is 15% in data set [3] (dose A 6 g AS/ha), 25% in data set [3] (dose A 12 g AS/ha) and 30% in data set [3] (dose A 25 g AS/ha). The entries for the “Phytotoxicity Barley” value in data set [4] (dose A 6 g AS/ha), in data set [4] (dose A 12 g AS/ha) and in data set [4] (dose A 25 g AS/ha) were 5%, 15% and 55%, respectively. Moreover, the “% effect on ALMY” value was determined as 98% in data set [5] (dose A 6 g AS/ha), 100% in data set [5] (dose A 12 g AS/ha) and 100% in data set [5] (dose A 25 g AS/ha). Further, the “% effect on APSP” value was 80% in data set [6] (dose A 6 g AS/ha), 97% in data set [6] (dose A 12 g AS/ha) and 99% in data set [6] (dose A 25 g AS/ha).

Take `COC(=O)c1ccc(NC(C)=O)cc1S(=O)(=O)NC(=O)Nc1nc(OC)cc(OC)n1` [A1, N-(4,6-Dimethoxypyrimidin-2-ylaminocarbonyl)-2-methoxycarbonyl-5-acetylaminobenzenesulfonamide]: the “Phytotoxicity Wheat” value in data set [3] (dose A 10 g AS/ha) was determined as 25%; in data set [3] (dose A 20 g AS/ha), 50%. The results for the “Phytotoxicity Barley” value in data set [4] (dose A 10 g AS/ha) and in data set [4] (dose A 20 g AS/ha) were 50% and 80%, respectively.

As for `COC(=O)NCc1ccc(C(=O)OC)c(S(=O)(=O)NC(=O)Nc2nc(OC)cc(OC)n2)c1.[Na]` [A6, N-(4,6-Dimethoxypyrimidin-2-ylaminocarbonyl)-2-methoxycarbonyl-5-(N-methoxycarbonylaminomethyl)benzenesulfonamide sodium salt], the “% effect on AVFA” value in data set [1] (dose A 10 g AS/ha) amounted to 80%; in data set [1] (dose A 20 g AS/ha), 90%; in data set [1] (dose A 40 g AS/ha), 100%. Further, the entries for the “% effect on POAN” value in data set [2] (dose A 10 g AS/ha), in data set [2] (dose A 20 g AS/ha) and in data set [2] (dose A 40 g AS/ha) were 99%, 100% and 100%, respectively. In addition, the “Phytotoxicity Wheat” value is 15% in data set [3] (dose A 20 g AS/ha) and 40% in data set [3] (dose A 40 g AS/ha). Also, the results for the “Phytotoxicity Barley” value in data set [4] (dose A 20 g AS/ha) and in data set [4] (dose A 40 g AS/ha) were 30% and 85%, respectively. In addition, the “% effect on ALMY” value in data set [5] (dose A 10 g AS/ha) is listed as 99%; in data set [5] (dose A 20 g AS/ha) it was 100%; in data set [5] (dose A 40 g AS/ha), 100%. In addition, the “% effect on APSP” value in data set [6] (dose A 10 g AS/ha) was found to be 99%; in data set [6] (dose A 20 g AS/ha) it was 100%; in data set [6] (dose A 40 g AS/ha), 100%.

For `COC(=O)c1ccc(NC(C)=O)cc1S(=O)(=O)NC(=O)Nc1nc(OC)cc(OC)n1.[Na]` [A3, N-(4,6-Dimethoxypyrimidin-2-ylaminocarbonyl)-2-methoxycarbonyl-5-acetylaminobenzenesulfonamide sodium salt], the “Phytotoxicity Wheat” value in data set [3] (dose A 10 g AS/ha) came out at 30%; in data set [3] (dose A 20 g AS/ha) it was 65%. For the same molecule, the “Phytotoxicity Barley” value in data set [4] (dose A 10 g AS/ha) amounted to 60%; in data set [4] (dose A 20 g AS/ha), 95%.

Source of the values: US8901036B2, “Combinations of phenylsulfonylurea herbicides and safeners” (Bayer Cropscience AG, priority 1994, dated 2014).
